In patent publication EP0315434A2, “Pyridoxal hydrazone derivatives their production and use and pharmaceutical compositions containing the same” (YISSUM RESEARCH DEVELOPMENT COMPANY OF THE HEBREW …, priority 1987, dated 1989):

Tests used:
[1] = system: non-resistant strain of P. falciparum; conditions: molar concentration 1.5 x 10⁻⁵, according to Raventos-Suarez; cited from earlier work
[2] = background statement, "probably"; cited from earlier work
[3] = Fate of ⁵⁹Fe tracer incubated with chelator and injected into normal rats (radioiron distribution and excretion); format: in vivo
Experimental: Table 1 describes the fate of ⁵⁹Fe tracer reincubated […] with 10 mg of some of the above iron chelators and then injected subcutaneously to groups of 4 normal rats. Numbers represent mean cumulative radioiron excretion within 4 days of injection. For comparison, spontaneous excretion of radioiron and the excretion of desferrioxamine (DF) bound radioiron are also given. […]
Spleen and kidney were counted as whole organs.
(§1) The excretion of radioiron following ⁵⁹Fe labelling was measured in animals confined to solitary metabolic cages with stainless steel grid bottoms, and stool and urine were collected separately.

[4] = stated as known; cited from earlier work
[5] = Mobilization of iron from hepatic parenchymal stores in hypertransfused rats labelled with ⁵⁹Fe-ferritin; format: in vivo
Experimental: In each case, 40 mg of each compound was administered per animal in a single subcutaneous injection.
In vivo studies of chelating efficiency were performed in two models: (a) normal rats injected i.p. with 10 mg of either desferrioxamine B (DF), PIH of the prior art, PPH of Example 4 or PPHE from Example 5 labelled in vitro with ⁵⁹Fe; and (b) hypertransfused rats receiving twice 4 ml/100gm packed RBC intravenously 5 and 3 days prior to study (hematocrit 68%) and labelled with ⁵⁹Fe-ferritin injected i.v. 24h prior to iron chelating therapy as described previously. Drugs to be tested in the ⁵⁹Fe-ferritin model were given either by i.p. injection or by gastric tube at a dose of 40 mg per animal. Radioiron excretion and organ distribution were determined after 4 days
The radioactivity of spleen, weighed portions of the liver, and 1 ml samples of blood were determined in an automatic well type scintillation counter (Packard Autogamma Model 5360 Scintillation spectrometer). Spleen and kidney were counted as whole organs.
as §1, with “Whole body counts were performed in a small animal counter (Packard Model 446 Armac) scintillation detector. The” for “The”

[6] = 10 mg chelator with ⁵⁹Fe, subcutaneous, normal rats, cumulative within 4 days
[7] = 10 mg chelator with ⁵⁹Fe, subcutaneous, normal rats, within 4 days
[8] = hypertransfused rats, 40 mg per animal, after 4 days, Desferral i.p., route not printed for Ex. 4 and Ex. 5, mean ± SD
[9] = hypertransfused rats, 40 mg per animal, after 4 days, Desferral i.p., route not printed for Ex. 4 and Ex. 5, mean ± SD, listed as desferral
[10] = hypertransfused rats, 40 mg per animal, single subcutaneous injection

In the case of `CC(=O)N(O)CCCCCNC(=O)CCC(=O)N(O)CCCCCNC(=O)CCC(=O)N(O)CCCCCN` [Desferral, desferrioxamine, reference compound], the “INHIBITION OF GROWTH OF P. falciparum % INHIBITION” value [1] is listed as “complete after 96 Hrs. ^(*)”, the “half life in vivo” value [2] is listed as “less than 1 hr” and the “Radioiron Distribution in % Feces” value [3, 6] is listed as 13.5±0.7%. For the same molecule, the “Radioiron Distribution in % Total excretion” value [3, 6] was 85.4±4.3%, the “Radioiron Distribution in % Urine” value [3, 6] was 71.9±3.6% and the “Radioiron Distribution in % Blood” value [3, 7] was 8.7±1.6%. For the same molecule, the “Radioiron Distribution in % Liver” value [3, 7] was 2.7±0.3%, the “Radioiron Distribution in % Spleen” value [3, 7] was 0.14±0.03% and the “TOTAL EXCRETION OF RADIO-IRON IN RATS %” value ([3]; as in Table 1) was 85.4± 4.3%. For the same molecule, the oral efficiency [4] was “no oral efficiency”, the “reduction in hepatocellular (hepatic) radioactivity” value ([5]; 40 mg i.p., hypertransfused rats, 4 days) was 20% and the “ORGAN DISTRIBUTION AND EXCRETION OF ⁵⁹Fe-FERRITIN (%) BLOOD” value [5, 8] was 4.5±0.4%. For the same molecule, the “ORGAN DISTRIBUTION AND EXCRETION OF ⁵⁹Fe-FERRITIN (%) LIVER” value [5, 8] was 70.4± 6.0%, the “ORGAN DISTRIBUTION AND EXCRETION OF ⁵⁹Fe-FERRITIN (%) STOOL” value [5, 8] was 23.3±0.1% and the “ORGAN DISTRIBUTION AND EXCRETION OF ⁵⁹Fe-FERRITIN (%) TOTAL EXCRETION” value [5, 8] was 24.5±0.1%. For the same molecule, the “ORGAN DISTRIBUTION AND EXCRETION OF ⁵⁹Fe-FERRITIN (%) URINE” value ([5]; hypertransfused rats, 40 mg per animal, after 4 days, Desferral i.p., route not printed for Ex. 4 and Ex. 5, mean ± SD, listed as DESFERRAL) was 1.2±0%, the “ORGAN DISTRIBUTION AND EXCRETION OF ⁵⁹Fe-FERRITIN (%) STOOL” value [5, 9] was 23% and the “ORGAN DISTRIBUTION AND EXCRETION OF ⁵⁹Fe-FERRITIN (%) URINE” value [5, 9] was “negligible”. The “Ferritin-⁵⁹Fe distribution in % Blood” value [5, 10] was 4.5±0.4%, the “Ferritin-⁵⁹Fe distribution in % Feces” value [5, 10] was 23.3±0.1% and the “Ferritin-⁵⁹Fe distribution in % Liver” value [5, 10] was 70.4±6.0%. The “Ferritin-⁵⁹Fe distribution in % Residual” value [5, 10] was 0%, the “Ferritin-⁵⁹Fe distribution in % Spleen” value [5, 10] was 0.6±0.1% and the “Ferritin-⁵⁹Fe distribution in % Urine” value [5, 10] was 1.2±0%. The total radioiron excretion ([5]; oral, 40 mg drug/animal by gastric tube, hypertransfused ⁵⁹Fe-ferritin labelled rats) was 6.0%.
